Data from ChEMBL document CHEMBL1201862, “PubChem BioAssay data set” (2004).
Activity calls are given as the source filed them.

Tests used:
[1] = molecular target: Disintegrin and metalloproteinase domain-containing protein 17 (Homo sapiens, UniProt P78536); test: ADAM17 protease inhibitors, dose response, counter-screen for ADAM10 exosite inhibitor project, biochemical, quenched FRET substrate (AID 743253)
[2] = ADAM10 inhibitors, peptide cleavage, dose response, biochemical, QFRET (AID 743254);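 note: ADAM10 enzyme with the DM2 quenched FRET peptide as substrate; EDANS fluorescence gain as the protease cuts the substrate; inhibitor potency against ADAM10 proteolytic activity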
[3] = Luminescence-based cell-based high throughput dose response assay to identify activators of the DAF-12 from the parasite S. stercoralis (ssDAF-12).; assay type: functional
[4] = molecular target: T1, Oxysterols receptor LXR-beta (Homo sapiens, UniProt P55055); test: LXR agonists, Gal4 luciferase reporter, dose response, counter-screen for ssDAF-12 agonist project, cell-based, luminescence, HEK293, S. stercoralis campaign (AID 720737); assay type: functional; conditions: read-out: IC50 (the source's name)
T1 sequence (P55055 whole entry): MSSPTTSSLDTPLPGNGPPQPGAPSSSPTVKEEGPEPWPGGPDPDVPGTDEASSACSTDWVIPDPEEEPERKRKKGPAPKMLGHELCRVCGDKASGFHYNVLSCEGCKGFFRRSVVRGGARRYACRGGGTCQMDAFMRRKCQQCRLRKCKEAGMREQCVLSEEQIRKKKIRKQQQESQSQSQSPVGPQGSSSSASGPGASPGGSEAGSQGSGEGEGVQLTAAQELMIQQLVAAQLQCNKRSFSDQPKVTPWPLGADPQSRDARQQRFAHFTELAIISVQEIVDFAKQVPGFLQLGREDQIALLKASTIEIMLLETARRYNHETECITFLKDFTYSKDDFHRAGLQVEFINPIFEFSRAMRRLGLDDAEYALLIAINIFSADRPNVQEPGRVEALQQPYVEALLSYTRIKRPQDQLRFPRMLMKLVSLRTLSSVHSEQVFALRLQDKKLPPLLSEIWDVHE

[5] = Vero cell cytotoxicity, dose response, cytotoxicity control for Vif-APOBEC3G degradation inhibitor project, Vero cells (AID 1117358); assay type: functional; conditions: Human immunodeficiency virus 1, Vero
[6] = inhibitors of intracellular T. cruzi replication, confirmation, NIH3T3 host cells, beta-gal luminescence (AID 2044); assay type: functional, cell-based;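 note: intracellular parasites grown in NIH/3T3 mouse fibroblasts as host cells; luminescent beta-galactosidase reporter signal from transgenic T. cruzi replicating inside host cells; inhibitors lower the luminescence signal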
[7] = cytotoxicity toward NIH3T3 fibroblasts, dose response, counter-screen, cell-based, ATP luminescence, mouse fibroblasts (AID 2010); assay type: functional;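 note: cells exposed to compound for about 90 hours before reading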
[8] = inhibitors of clade B AD8 Env fusion, dose response, cell-based, cherry-pick (AID 652062); assay type: functional;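 note: luciferase signal from cell-cell fusion driven by HIV-1 clade B AD8 Env; potency is for inhibitors of fusion seen as a drop in luminescence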
[9] = inhibitors of HIV Env-driven cell fusion, dose response, cherry-pick (AID 652057); assay type: functional, cell-based
[10] = MC4R antagonists, dose response, counter-screen for LGR2 antagonist project, cell-based, plate reader, cherry pick (AID 743444); assay type: functional;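 note: transfected HEK 293 cells stimulated with alpha-MSH peptide; potency of inhibitors of the alpha-MSH evoked signal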
[11] = LGR2 antagonists, dose response, cell-based, HEK293, CRE-luciferase reporter, cherry pick, set 2 (AID 743343); assay type: functional;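 note: transfected cells were stimulated with diluted bursicon conditioned medium after compound addition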
[12] = off-target signal loss in HeLa-CEM21 co-culture – HeLa F-luc CTL cells, cherry-picked, counter-screen for HIV-1 Env fusion inhibitor project, dose response (AID 652040); assay type: functional, cell-based;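 note: potency for signal decrease marking cytotoxic or nonspecific inhibition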
[13] = molecular target: T2, Sentrin-specific protease 8 (Homo sapiens, UniProt Q96LD8); assay type: functional
T2 sequence (Q96LD8 whole entry): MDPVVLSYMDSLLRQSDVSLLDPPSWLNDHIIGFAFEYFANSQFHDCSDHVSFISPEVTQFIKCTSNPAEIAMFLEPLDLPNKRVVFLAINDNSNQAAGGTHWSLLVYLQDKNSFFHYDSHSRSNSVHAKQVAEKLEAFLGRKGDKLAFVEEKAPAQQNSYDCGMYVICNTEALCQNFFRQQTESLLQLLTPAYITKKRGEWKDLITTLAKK

Caspase-6 = molecular target: T3, Caspase-6 (Homo sapiens, UniProt P55212); test: human caspase-6 inhibitors, dose response, biochemical, VEID-R110 fluorescence, cherry-pick (AID 720632)
T3 sequence (P55212 whole entry): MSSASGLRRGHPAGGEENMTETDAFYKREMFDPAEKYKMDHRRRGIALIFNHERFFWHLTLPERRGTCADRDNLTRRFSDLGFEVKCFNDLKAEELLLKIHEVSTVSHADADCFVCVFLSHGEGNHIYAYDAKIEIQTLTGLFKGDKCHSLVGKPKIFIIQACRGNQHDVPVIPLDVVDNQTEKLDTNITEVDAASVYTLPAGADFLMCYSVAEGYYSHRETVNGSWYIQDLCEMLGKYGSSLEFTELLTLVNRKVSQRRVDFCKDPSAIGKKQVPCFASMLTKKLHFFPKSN

[14] = molecular target: T2, Sentrin-specific protease 8; assay type: functional; remark: listed apart in the source
[15] = Luminescence Cell-Based Dose Confirmation to Identify Activators of 5'UTR Stem-Loop Driven Alpha-Synuclein mRNA Translation in H4 Neuroglioblastoma Cells. [Related pubchem assays: 1829 (Project Summary), 1814 (Primary HTS)]; assay type: functional
[16] = Luminescence Cell-Based Dose Response HTS to Identify Activators of Luciferase Translation or Activity in H4 […] Cells. [Related pubchem assays: 1829 (Project Summary), 1814 (Primary HTS)]; assay type: functional
[17] = Luminescence Cell-Based Dose Response to Identify Activators of 5'UTR Stem-Loop Driven Prion Protein mRNA Translation in H4-C Neuroglioblastoma Cells. [Related pubchem assays: 1829 (Project Summary), 1814 (Primary HTS)]; assay type: functional
[18] = Luminescence Cell-Based Dose Confirmation HTS to Identify Activators of 5'UTR Stem-Loop Driven Alpha-Synuclein mRNA Translation in H4 Neuroglioblastoma Cells. [Related pubchem assays: 1829 (Project Summary), 1814 (Primary HTS)]; assay type: functional
[19] = Luminescence Cell-Based Dose Response to Identify Activators of Luciferase Translation or Activity in H4-C Neuroglioblastoma Cells. [Related pubchem assays: 1829 (Project Summary), 1814 (Primary HTS)]; assay type: functional
H4 = test: Luminescence Cell-Based Dose Response HTS to Identify Activators of 5'UTR Stem-Loop Driven Prion Protein mRNA Translation in H4 Neuroglioblastoma Cells. [Related pubchem assays: 1829 (Project Summary), 1814 (Primary HTS)]; assay type: functional; conditions: Homo sapiens
[20] = HEK293T cytotoxicity, dose response, cytotoxicity control for miR-122 modulator project, cell-based, inhibitor set, cherry-pick, set 2 (AID 720697); assay type: functional
[21] = molecular target: Eukaryotic translation initiation factor 4E (Mus musculus, UniProt P63073); test: eIF4E–eIF4G protein interaction inhibitors, dose response, biochemical, TR-FRET (AID 855); assay type: functional;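 note: potency for disrupting eIF4E binding to eIF4GI seen as loss of FRET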
[22] = molecular target: T4, Histone-lysine N-methyltransferase NSD2 (Homo sapiens, UniProt O96028); assay type: biochemical
T4 sequence (O96028 whole entry): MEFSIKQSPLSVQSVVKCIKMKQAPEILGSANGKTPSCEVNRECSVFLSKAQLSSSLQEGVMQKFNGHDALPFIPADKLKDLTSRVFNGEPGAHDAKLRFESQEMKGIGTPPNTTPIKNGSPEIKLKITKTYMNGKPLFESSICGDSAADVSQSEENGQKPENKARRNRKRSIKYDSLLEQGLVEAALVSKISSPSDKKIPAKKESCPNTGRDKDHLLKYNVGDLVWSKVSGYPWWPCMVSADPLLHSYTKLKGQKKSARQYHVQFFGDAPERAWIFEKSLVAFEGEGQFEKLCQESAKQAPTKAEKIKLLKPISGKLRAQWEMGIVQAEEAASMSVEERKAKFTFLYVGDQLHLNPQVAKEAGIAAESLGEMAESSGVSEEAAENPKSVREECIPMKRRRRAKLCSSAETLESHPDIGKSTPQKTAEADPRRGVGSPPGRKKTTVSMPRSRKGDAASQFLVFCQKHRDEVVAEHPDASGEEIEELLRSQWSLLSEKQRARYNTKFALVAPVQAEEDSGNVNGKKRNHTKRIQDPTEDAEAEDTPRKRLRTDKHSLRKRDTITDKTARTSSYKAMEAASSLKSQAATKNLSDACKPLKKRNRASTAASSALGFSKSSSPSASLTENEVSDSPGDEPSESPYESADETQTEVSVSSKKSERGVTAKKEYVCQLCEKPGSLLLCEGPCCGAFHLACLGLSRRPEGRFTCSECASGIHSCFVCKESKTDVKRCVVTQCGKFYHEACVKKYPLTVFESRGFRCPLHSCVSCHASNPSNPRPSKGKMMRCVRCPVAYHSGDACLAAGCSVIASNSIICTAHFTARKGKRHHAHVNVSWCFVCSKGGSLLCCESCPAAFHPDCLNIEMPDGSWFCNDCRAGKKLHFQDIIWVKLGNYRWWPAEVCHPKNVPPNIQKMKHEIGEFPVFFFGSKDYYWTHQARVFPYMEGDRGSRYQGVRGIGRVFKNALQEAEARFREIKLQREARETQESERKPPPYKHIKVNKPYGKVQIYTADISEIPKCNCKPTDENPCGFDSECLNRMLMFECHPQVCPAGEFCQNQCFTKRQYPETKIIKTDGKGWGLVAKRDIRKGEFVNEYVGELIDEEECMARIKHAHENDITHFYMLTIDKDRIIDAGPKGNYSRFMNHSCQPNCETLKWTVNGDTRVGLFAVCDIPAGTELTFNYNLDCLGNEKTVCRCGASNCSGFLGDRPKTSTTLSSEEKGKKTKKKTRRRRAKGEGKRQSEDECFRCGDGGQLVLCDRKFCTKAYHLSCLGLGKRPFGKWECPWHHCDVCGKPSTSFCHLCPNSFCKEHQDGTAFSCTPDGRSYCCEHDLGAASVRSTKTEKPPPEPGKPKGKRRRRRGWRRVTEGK

[23] = molecular target: Induced myeloid leukemia cell differentiation protein Mcl-1 (Homo sapiens, UniProt Q07820); assay type: functional
[24] = molecular target: T5, Rac GTPase-activating protein 1 (Homo sapiens, UniProt Q9H0H5); test: MgcRacGAP GTPase-activating activity inhibitors, confirmation, biochemical, ADP Hunter fluorescence, primary and confirmatory (AID 624330); assay type: functional
T5 sequence (Q9H0H5 whole entry): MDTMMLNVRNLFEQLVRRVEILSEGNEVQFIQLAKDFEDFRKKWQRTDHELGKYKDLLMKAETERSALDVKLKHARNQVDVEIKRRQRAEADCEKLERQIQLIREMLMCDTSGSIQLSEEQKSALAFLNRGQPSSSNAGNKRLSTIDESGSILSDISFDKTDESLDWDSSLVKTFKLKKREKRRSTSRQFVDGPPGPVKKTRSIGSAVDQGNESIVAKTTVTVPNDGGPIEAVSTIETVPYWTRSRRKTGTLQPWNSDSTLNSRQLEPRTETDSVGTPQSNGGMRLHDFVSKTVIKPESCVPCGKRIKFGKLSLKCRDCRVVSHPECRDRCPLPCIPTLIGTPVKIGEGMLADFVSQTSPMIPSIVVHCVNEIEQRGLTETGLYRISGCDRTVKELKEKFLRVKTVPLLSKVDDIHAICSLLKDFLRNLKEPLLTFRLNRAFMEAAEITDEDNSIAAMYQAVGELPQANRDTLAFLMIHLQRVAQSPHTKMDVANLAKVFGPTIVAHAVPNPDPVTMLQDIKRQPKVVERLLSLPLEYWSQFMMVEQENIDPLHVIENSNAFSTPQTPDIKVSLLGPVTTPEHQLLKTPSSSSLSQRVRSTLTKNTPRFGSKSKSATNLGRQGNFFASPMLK

Nonstructural protein 1 = Nonstructural protein 1 (Influenza A virus, UniProt Q194T2); assay type: functional, Influenza A virus (A/California/07/2009(H1N1))
Large T antigen = Large T antigen (Simian virus 40, UniProt P03070); assay type: functional, Betapolyomavirus macacae;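 note: Confirmatory-stage PubChem screen for compounds that inhibit SV40 T antigen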
Chain of Large T antigen (P03070 whole entry): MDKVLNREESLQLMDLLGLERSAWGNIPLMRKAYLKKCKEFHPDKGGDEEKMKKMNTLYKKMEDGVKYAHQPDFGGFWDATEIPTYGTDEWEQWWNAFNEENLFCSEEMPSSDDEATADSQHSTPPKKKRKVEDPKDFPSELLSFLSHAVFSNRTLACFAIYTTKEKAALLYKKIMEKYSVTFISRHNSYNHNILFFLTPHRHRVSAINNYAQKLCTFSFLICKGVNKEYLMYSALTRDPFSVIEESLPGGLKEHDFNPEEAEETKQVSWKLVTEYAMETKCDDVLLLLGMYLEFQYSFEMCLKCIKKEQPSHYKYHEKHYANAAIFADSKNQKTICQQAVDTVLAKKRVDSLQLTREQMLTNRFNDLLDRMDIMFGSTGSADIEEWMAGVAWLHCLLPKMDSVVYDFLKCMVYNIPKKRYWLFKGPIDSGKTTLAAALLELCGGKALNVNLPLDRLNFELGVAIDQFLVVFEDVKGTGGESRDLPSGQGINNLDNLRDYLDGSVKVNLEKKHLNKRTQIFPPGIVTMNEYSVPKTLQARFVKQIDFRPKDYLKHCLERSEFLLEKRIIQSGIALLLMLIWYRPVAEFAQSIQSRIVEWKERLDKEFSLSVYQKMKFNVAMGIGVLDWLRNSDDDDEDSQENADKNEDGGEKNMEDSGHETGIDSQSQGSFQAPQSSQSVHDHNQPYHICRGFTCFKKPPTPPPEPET

Chain of Disintegrin and metalloproteinase domain-containing protein 17 (P78536 whole entry, the tested form may be a part): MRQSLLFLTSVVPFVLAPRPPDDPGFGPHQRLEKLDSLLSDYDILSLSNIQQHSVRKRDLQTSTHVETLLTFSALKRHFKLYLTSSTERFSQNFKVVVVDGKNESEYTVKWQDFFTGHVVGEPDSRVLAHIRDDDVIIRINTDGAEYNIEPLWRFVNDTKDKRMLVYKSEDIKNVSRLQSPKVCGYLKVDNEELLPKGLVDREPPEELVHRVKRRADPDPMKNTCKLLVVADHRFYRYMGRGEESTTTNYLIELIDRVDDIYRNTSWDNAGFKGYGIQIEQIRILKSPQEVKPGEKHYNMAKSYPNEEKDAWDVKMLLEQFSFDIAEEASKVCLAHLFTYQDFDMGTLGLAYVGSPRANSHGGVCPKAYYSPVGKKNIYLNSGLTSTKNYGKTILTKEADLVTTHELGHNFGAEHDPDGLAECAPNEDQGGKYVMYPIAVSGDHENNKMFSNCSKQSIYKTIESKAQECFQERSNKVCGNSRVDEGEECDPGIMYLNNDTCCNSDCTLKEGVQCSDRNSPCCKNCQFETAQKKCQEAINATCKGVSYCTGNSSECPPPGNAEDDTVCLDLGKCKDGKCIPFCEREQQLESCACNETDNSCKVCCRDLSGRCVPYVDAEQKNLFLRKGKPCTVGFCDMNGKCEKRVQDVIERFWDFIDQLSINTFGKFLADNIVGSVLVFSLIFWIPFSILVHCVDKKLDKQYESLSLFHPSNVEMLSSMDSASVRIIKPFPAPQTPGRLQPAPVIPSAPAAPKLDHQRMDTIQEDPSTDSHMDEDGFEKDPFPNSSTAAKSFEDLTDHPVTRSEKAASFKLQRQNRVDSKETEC
Chain of Induced myeloid leukemia cell differentiation protein Mcl-1 (Q07820 whole entry): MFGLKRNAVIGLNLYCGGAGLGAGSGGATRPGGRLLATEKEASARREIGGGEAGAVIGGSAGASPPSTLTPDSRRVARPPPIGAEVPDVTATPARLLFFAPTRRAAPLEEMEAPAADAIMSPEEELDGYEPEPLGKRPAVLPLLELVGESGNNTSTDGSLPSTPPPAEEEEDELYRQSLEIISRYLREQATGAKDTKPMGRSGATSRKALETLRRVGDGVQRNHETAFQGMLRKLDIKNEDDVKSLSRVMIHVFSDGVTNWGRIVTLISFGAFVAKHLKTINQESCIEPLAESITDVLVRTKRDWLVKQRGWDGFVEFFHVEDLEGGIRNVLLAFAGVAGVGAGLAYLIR
Chain of Eukaryotic translation initiation factor 4E (P63073 whole entry): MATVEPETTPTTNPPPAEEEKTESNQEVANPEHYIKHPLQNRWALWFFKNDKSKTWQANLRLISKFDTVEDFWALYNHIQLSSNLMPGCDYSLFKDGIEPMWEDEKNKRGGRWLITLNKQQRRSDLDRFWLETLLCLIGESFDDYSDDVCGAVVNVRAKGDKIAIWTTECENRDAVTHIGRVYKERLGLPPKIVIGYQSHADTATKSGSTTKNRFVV
Chain of Nonstructural protein 1 (Q194T2 whole entry): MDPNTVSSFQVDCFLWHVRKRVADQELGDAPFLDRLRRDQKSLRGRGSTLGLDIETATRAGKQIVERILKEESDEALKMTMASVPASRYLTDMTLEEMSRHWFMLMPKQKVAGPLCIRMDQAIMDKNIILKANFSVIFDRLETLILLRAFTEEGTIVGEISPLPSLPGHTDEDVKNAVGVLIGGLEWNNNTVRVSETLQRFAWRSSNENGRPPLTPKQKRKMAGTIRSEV

Cc1ccc(Nc2nc(N)nc(CSc3nc4ccccc4s3)n2)cc1
IC50 [1]: > 69.5 µM (inactive)
IC50 [2]: > 7.72 µM (active)

CC1CCC(NC(=O)c2ccc(S(C)(=O)=O)cc2)CC1 (centres undefined)
IC50 [3]: > 67.5 µM (inactive)
EC50 [4]: > 67.5 µM (inactive)

COc1ccc(CCNC(=O)CSc2nc(-c3ccco3)cc(C(F)(F)F)n2)cc1
CC50 [5]: > 40 µM (active)

Cc1ccc(C(=O)Nc2ccccc2-c2ccccc2)cc1S(=O)(=O)Nc1cccc(C)c1C
EC50 [6]: 1.57 µM (active)
IC50 [1]: > 69.5 µM (inactive)
IC50 [2]: > 69.5 µM (inactive)
EC50 [7]: > 60 µM (not active)

Cc1cc(C(=O)CN2C(=O)c3ccccc3S2(=O)=O)c(C)n1C(C)C
AC50 [8]: 7.58 µM (active)
AC50 [9]: 3.93 µM (active)
AC50 [10]: 2.08 µM (active)
AC50 [11]: 2.48 µM (active)
AC50 [12]: 3.75 µM (active)

CC1Cc2ccccc2N1C(=O)COC(=O)c1ccc([N+](=O)[O-])o1 (centres undefined)
IC50 [13]: 8.67 µM (active)
AC50 (Caspase-6): 13 µM (active)
IC50 [14]: 3.78 µM (active)

Cc1ccc(NC(=O)C2CC(=O)Nc3nncn32)cc1 (centres undefined)
IC50 [3]: > 67.6 µM (inactive)
EC50 [4]: > 67.6 µM (inactive)

Fc1cccc(Cl)c1Cc1noc(/C=C/c2ccccc2)n1
EC50 [15]: > 12 µM (not active)
EC50 [16]: 70.3 µM (active)
EC50 [17]: > 12 µM (not active)
EC50 [18]: < 0.1 µM (active)
EC50 [19]: > 12 µM (not active)
EC50 (H4): 4.36 µM (active)

O=C1Cc2ccccc2C(=O)N1c1ccc(F)cc1Cl
IC50 [13]: 4.41 µM (active)
AC50 (Caspase-6): 20.4 µM (active)
IC50 [14]: > 100 µM (inactive)

Nc1nonc1OCCCCOc1nonc1N
IC50 [3]: > 67.6 µM (inactive)
EC50 [4]: > 67.6 µM (inactive)

COc1ccc(S(=O)(=O)N(C)C[C@@H]2OCCCC[C@H](C)Oc3ccc(NC(=O)Nc4ccc(C(F)(F)F)cc4)cc3C(=O)N([C@H](C)CO)C[C@H]2C)cc1
IC50 [1]: > 69.5 µM (inactive)
IC50 [2]: > 69.5 µM (inactive)

CCCNC(=O)Nc1ccc2c(c1)C(=O)N(C)[C@@H]1CC[C@H](CC(=O)O)O[C@H]1CO2
AC50 [20]: 1.82 µM (active)

CN(C)c1ccc(/N=c2/sc3ccccc3n2C)cc1
IC50 [21]: > 64 µM (inactive)
AC50 [22]: 10.4 µM (active)
IC50 [23]: 40.2 µM (active)
IC50 [24]: 18.9 µM (active)
IC50 (Nonstructural protein 1): 23.9 µM (active)
IC50 (Large T antigen): 11.4 µM (active)
